# US20240199634A1, “CYCLIC COMPOUNDS AND METHODS OF USING SAME” (SCHRÖDINGER, INC., priority 2021, published 2024)
# Biological target: T1, Full length human CDC7 protein co-expressed with DBF4 (Homo sapiens, UniProt O00311)
# T1 construct: Full length human CDC7 protein co-expressed with DBF4; purchased SignalChem (China)
# Assay: CDC7 Kinase Biochemical Assay (ADP-Glo, PDKtide substrate)
# Conditions: 0.1 nM CDC7/DBF4, 1 μM ATP, 10 μM PDKtide, 4 h reaction
# Procedure: CDC7 Kinase Biochemical Assay PROTOCOL:
# Full length human CDC7 protein co-expressed with DBF4 was purchased from SignalChem (China). CDC7 kinase activity was determined with PDKtide (SignalChem) as a substrate and by measuring ADP production using the ADP-Glo™ Kinase Assay kit (Promega) following the manufacturer's instructions. The kinase reaction was performed using the following conditions: Buffer: 40 mM Tris pH 7.5, 20 mM MgCl2, 0.1 mg/mL BSA and 50 μM DTT. Final reaction mix contained 0.1 nM CDC7/DBF4, 1 μM ATP and 10 μM PDKtide. The kinase reaction time was 4 h. The ADP-Glo signal was measured using an EnVision plate reader (PerkinELmer).
# Percent inhibition of CDC7 kinase activity was calculated based on the following formula:
# [formula] • SSample: the signal of compounds • SHigh Ctrl: the signal of high control (DMSO) • SLow Ctrl: the signal of low control (positive control CDC7 inhibitor)
# T1 sequence (O00311 whole entry): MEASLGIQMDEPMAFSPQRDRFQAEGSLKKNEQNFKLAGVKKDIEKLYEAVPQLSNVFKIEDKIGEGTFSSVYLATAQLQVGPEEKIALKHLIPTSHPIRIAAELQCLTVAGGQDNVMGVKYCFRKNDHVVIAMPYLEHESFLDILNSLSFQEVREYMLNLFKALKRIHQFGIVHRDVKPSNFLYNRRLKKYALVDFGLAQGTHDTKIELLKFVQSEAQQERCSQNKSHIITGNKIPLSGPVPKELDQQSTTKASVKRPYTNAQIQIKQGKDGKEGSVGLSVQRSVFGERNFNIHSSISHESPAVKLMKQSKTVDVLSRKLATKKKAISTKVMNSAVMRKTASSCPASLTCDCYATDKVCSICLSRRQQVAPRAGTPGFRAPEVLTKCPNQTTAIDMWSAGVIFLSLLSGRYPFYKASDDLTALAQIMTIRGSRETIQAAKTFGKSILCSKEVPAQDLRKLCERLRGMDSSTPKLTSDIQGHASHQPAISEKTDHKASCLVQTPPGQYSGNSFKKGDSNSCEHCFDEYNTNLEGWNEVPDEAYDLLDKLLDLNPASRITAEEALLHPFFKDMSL
# T1 sequence (Q9UBU7 whole entry partner): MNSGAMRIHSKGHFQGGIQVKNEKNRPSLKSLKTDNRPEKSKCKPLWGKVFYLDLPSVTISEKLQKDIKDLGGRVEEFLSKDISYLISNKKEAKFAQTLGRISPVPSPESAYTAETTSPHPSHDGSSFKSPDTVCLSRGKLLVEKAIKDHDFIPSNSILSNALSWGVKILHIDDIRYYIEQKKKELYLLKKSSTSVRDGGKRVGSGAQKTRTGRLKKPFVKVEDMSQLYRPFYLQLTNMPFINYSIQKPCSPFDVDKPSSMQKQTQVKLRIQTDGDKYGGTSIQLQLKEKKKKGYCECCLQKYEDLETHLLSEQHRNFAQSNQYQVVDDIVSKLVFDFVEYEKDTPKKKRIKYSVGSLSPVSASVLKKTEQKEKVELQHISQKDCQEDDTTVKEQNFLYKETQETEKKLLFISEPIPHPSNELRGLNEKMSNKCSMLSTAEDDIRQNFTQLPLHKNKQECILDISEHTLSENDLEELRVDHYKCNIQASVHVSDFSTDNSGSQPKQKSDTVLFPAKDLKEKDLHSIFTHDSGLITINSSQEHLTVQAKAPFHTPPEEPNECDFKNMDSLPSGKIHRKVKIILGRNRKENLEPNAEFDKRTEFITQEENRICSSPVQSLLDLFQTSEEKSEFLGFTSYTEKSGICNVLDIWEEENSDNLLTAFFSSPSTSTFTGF
row,IC50 [nM],Compound
1,1 to 10,"O=c1[nH]c2c(c3cc(-c4cn[nH]c4)sc13)CCC[C@@H]2O (single isomer, unassigned) [Compound 3]"
2,≤ 1,"O=c1[nH]c2c(c3cc(-c4cn[nH]c4)sc13)CCC[C@H]2O (single isomer, unassigned) [Compound 4]"
3,≤ 1,"O=c1[nH]c2c(c3cc(-c4cn[nH]c4)sc13)CCC[C@H]2N1CCC(F)(F)C1 (single isomer, unassigned) [Compound 5]"
4,> 10,"O=c1[nH]c2c(c3cc(-c4cn[nH]c4)sc13)CCC[C@@H]2N1CCC(F)(F)C1 (single isomer, unassigned) [Compound 6]"
5,≤ 1,"CO[C@H]1COCc2c1[nH]c(=O)c1sc(-c3cn[nH]c3)cc21 (single isomer, unassigned) [Compound 10]"
6,> 10,"CO[C@@H]1COCc2c1[nH]c(=O)c1sc(-c3cn[nH]c3)cc21 (single isomer, unassigned) [Compound 11]"
7,1 to 10,"O=c1[nH]c2c(c3cc(-c4cn[nH]c4)sc13)CC(F)(F)C[C@H]2N1CCC1 (single isomer, unassigned) [Compound 12]"
8,≤ 1,"O=c1[nH]c2c(c3cc(-c4cn[nH]c4)sc13)CC(F)(F)C[C@@H]2N1CCC1 (single isomer, unassigned) [Compound 13]"
9,1 to 10,"C[C@]1(CO)CC(F)(F)Cc2c1[nH]c(=O)c1sc(-c3cn[nH]c3)cc21 (single isomer, unassigned) [Compound 14]"
10,≤ 1,"C[C@@]1(CO)CC(F)(F)Cc2c1[nH]c(=O)c1sc(-c3cn[nH]c3)cc21 (single isomer, unassigned) [Compound 15]"
11,1 to 10,"CC(C)C1(O)COCc2c1[nH]c(=O)c1sc(-c3cn[nH]c3)cc21 (single isomer, unassigned) [Compound 17]"
12,> 10,"CCC1(O)COCc2c1[nH]c(=O)c1sc(-c3cn[nH]c3)cc21 (single isomer, unassigned) [Compound 19]"
13,1 to 10,"CC(C)(C)[C@]1(O)COCc2c1[nH]c(=O)c1sc(-c3cn[nH]c3)cc21 (single isomer, unassigned) [Compound 21]"
14,> 10,"CC(C)(C)[C@]1(O)COCc2c1[nH]c(=O)c1sc(-c3ccncc3)cc21 (single isomer, unassigned) [Compound 23]"
15,≤ 1,"Cc1n[nH]cc1-c1cc2c3c([nH]c(=O)c2s1)C(O)(C(C)C)COC3 (single isomer, unassigned) [Compound 24]"
16,1 to 10,"Cc1n[nH]cc1-c1cc2c3c([nH]c(=O)c2s1)C(O)(C(C)C)COC3 (single isomer, unassigned) [Compound 25]"
17,1 to 10,"CC(C)C1(O)COCc2c1[nH]c(=O)c1sc(-c3c[nH]nc3F)cc21 (single isomer, unassigned) [Compound 26]"
18,≤ 1,"O=c1[nH]c2c(c3cc(-c4cn[nH]c4)sc13)COCC2(O)C(F)(F)F (single isomer, unassigned) [Compound 28]"
19,1 to 10,"O=c1[nH]c2c(c3cc(-c4cn[nH]c4)sc13)COCC2(O)C(F)(F)F (single isomer, unassigned) [Compound 29]"
20,1 to 10,"Cn1nccc1-c1cc2c3c([nH]c(=O)c2s1)C(O)(C(F)(F)F)COC3 (single isomer, unassigned) [Compound 31]"
21,1 to 10,"Cc1n[nH]cc1-c1cc2c3c([nH]c(=O)c2s1)C(O)(C(F)(F)F)COC3 (single isomer, unassigned) [Compound 33]"
22,> 10,"CC1(CO)OCCc2c1[nH]c(=O)c1sc(-c3cn[nH]c3)cc21 (single isomer, unassigned) [Compound 34]"
23,≤ 1,"CC1(CO)OCCc2c1[nH]c(=O)c1sc(-c3cn[nH]c3)cc21 (single isomer, unassigned) [Compound 35]"

row,IC50 [nM],Compound
1,> 10,"O=c1[nH]c2c(c3cc(-c4cn[nH]c4)sc13)CCCC2(O)C(F)F (single isomer, unassigned) [Compound 36]"
2,1 to 10,"COC1(C)CCCc2[nH]c(=O)c3sc(-c4cn[nH]c4)cc3c21 (single isomer, unassigned) [Compound 38]"
3,≤ 1,"COC1(C)CCCc2[nH]c(=O)c3sc(-c4cn[nH]c4)cc3c21 (single isomer, unassigned) [Compound 39]"
4,1 to 10,"O=c1[nH]c2c(c3cc(-c4cn[nH]c4)sc13)COCC2(O)C(F)F (single isomer, unassigned) [Compound 43]"
5,> 10,"CC(C)C1(O)COCc2c1[nH]c(=O)c1sc(-c3ccncc3)cc21 (single isomer, unassigned) [Compound 45]"
6,> 10,"CC(C)C1(O)COCc2c1[nH]c(=O)c1sc(-c3ccns3)cc21 (single isomer, unassigned) [Compound 47]"
7,> 10,"COCC1(O)CC(F)(F)Cc2c1[nH]c(=O)c1sc(-c3cn[nH]c3)cc21 (single isomer, unassigned) [Compound 48]"
8,≤ 1,"COCC1(O)CC(F)(F)Cc2c1[nH]c(=O)c1sc(-c3cn[nH]c3)cc21 (single isomer, unassigned) [Compound 49]"
9,1 to 10,"CCC1(O)CC(F)(F)Cc2c1[nH]c(=O)c1sc(-c3cn[nH]c3)cc21 (single isomer, unassigned) [Compound 50]"
10,1 to 10,"COC1(C)CC(F)(F)Cc2c1[nH]c(=O)c1sc(-c3cn[nH]c3)cc21 (single isomer, unassigned) [Compound 52]"
11,≤ 1,"COC1(C)CC(F)(F)Cc2c1[nH]c(=O)c1sc(-c3cn[nH]c3)cc21 (single isomer, unassigned) [Compound 53]"
12,≤ 1,"CC1(O)CC(F)(F)Cc2c1[nH]c(=O)c1sc(-c3cn[nH]c3)cc21 (single isomer, unassigned) [Compound 54]"
13,1 to 10,"CC1(O)CC(F)(F)Cc2c1[nH]c(=O)c1sc(-c3cn[nH]c3)cc21 (single isomer, unassigned) [Compound 55]"
14,> 10,"CC(C)(O)C1(C)OCCc2c1[nH]c(=O)c1sc(-c3cn[nH]c3)cc21 (single isomer, unassigned) [Compound 56]"
15,1 to 10,"CC(C)(O)C1(C)OCCc2c1[nH]c(=O)c1sc(-c3cn[nH]c3)cc21 (single isomer, unassigned) [Compound 57]"
16,1 to 10,"CC(C)(C)C1(O)COCc2c1[nH]c(=O)c1sc(-c3ccncc3F)cc21 (single isomer, unassigned) [Compound 60]"
17,≤ 1,"Cc1cc(-c2cc3c4c([nH]c(=O)c3s2)C(O)(C(C)(C)C)COC4)ccn1 (single isomer, unassigned) [Compound 61]"
18,> 10,"Cc1cc(-c2cc3c4c([nH]c(=O)c3s2)C(O)(C(C)(C)C)COC4)ccn1 (single isomer, unassigned) [Compound 62]"
19,≤ 1,"CC(C)(C)C1(O)COCc2c1[nH]c(=O)c1sc(-c3ncncc3Cl)cc21 (single isomer, unassigned) [Compound 63]"
20,1 to 10,"CC(C)(C)C1(O)COCc2c1[nH]c(=O)c1sc(-c3ncncc3Cl)cc21 (single isomer, unassigned) [Compound 64]"
21,> 10,"CC(C)(C)C1(O)COCc2c1[nH]c(=O)c1sc(-c3c[nH]nc3F)cc21 (single isomer, unassigned) [Compound 65]"
22,≤ 1,"CC(C)(C)C1(O)COCc2c1[nH]c(=O)c1sc(-c3c[nH]nc3F)cc21 (single isomer, unassigned) [Compound 66]"
